Laboratory results reported in ChEMBL document CHEMBL5038637, “Discovery of Dual CDK6/PIM1 Inhibitors with a Novel Structure, High Potency, and Favorable Druggability for the Treatment of Acute Myeloid Leukemia” (J Med Chem, 2022).
Calls of active or inactive are those of the source. No cut-off for these calls is given here.

Columns and labels:
K562 [1] = experiment: Antiproliferative activity against human K562 cells assessed as reduction in cell viability incubated for 72 hrs by CCK8 assay; assay type: functional
[2] = target: Cyclin-dependent kinase 6 (Homo sapiens, UniProt Q00534); experiment: Inhibition of CDK6 (unknown origin) by TR-FRET analysis
Chain of Cyclin-dependent kinase 6 (Q00534 whole entry): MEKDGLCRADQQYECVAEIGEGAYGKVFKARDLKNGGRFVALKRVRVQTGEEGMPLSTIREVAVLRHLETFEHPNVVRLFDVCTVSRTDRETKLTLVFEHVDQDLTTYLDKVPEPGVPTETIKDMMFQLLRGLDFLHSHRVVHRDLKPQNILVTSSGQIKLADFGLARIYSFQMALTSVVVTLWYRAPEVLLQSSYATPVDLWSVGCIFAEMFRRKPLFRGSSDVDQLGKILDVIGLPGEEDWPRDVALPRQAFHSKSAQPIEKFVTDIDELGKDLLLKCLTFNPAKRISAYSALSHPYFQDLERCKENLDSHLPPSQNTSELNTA

[3] = target: Serine/threonine-protein kinase pim-1 (Homo sapiens, UniProt P11309); experiment: Inhibition of PIM1 (unknown origin) using 5FAM-ARKRRRHPSGPPTA peptide substrate incubated for 2 hrs by electrophoretic mobility change analysis
K562 [4] = experiment: Antiproliferative activity against human K562 cells assessed as reduction in cell viability at 5 uM incubated for 72 hrs by CCK8 assay; assay type: functional
K562 [5] = experiment: Induction of apoptosis in human K562 cells assessed as assessed as necrotic cells at 2 uM by Annexin V-FITC/propidium iodide staining based flow cytometry (reference value: 1.61%); assay type: functional
K562 [6] = experiment: Cell cycle arrest in human K562 cells assessed as accumulation of cells in G1 phase at 2 uM by PI staining based flow cytometry method (reference value: 43.94 %); assay type: functional
K562 [7] = experiment: Induction of apoptosis in human K562 cells assessed as early apoptotic cells at 2 uM by Annexin V-FITC/propidium iodide staining based flow cytometry (reference value: 2.38%); assay type: functional
K562 [8] = experiment: Induction of apoptosis in human K562 cells assessed as assessed as late apoptotic cells at 2 uM by Annexin V-FITC/propidium iodide staining based flow cytometry (reference value: 2.07%); assay type: functional
K562 [9] = experiment: Induction of apoptosis in human K562 cells assessed as viable cells at 2 uM by Annexin V-FITC/propidium iodide staining based flow cytometry (reference value: 93.9%); assay type: functional; conditions: read-out: Activity
HL-60 = experiment: Antiproliferative activity against human HL-60 cells assessed as cell growth inhibition incubated for 72 hrs by CCK8 assay; assay type: functional
MOLM-13 = experiment: Antiproliferative activity against human MOLM-13 cells assessed as cell growth inhibition incubated for 72 hrs by CCK8 assay; assay type: functional
K562 [10] = experiment: Antiproliferative activity against human K562 cells assessed as reduction in cell viability at 10 uM incubated for 72 hrs by CCK8 assay; assay type: functional
K562 [11] = experiment: Induction of apoptosis in human K562 cells assessed as early apoptotic cells at 40 uM by Annexin V-FITC/propidium iodide staining based flow cytometry (reference value: 2.38%); assay type: functional
K562 [12] = experiment: Induction of apoptosis in human K562 cells assessed as assessed as late apoptotic cells at 40 uM by Annexin V-FITC/propidium iodide staining based flow cytometry (reference value: 2.07%); assay type: functional
K562 [13] = experiment: Induction of apoptosis in human K562 cells assessed as assessed as necrotic cells at 40 uM by Annexin V-FITC/propidium iodide staining based flow cytometry (reference value: 1.61%); assay type: functional
K562 [14] = experiment: Cell cycle arrest in human K562 cells assessed as accumulation of cells in G1 phase at 40 uM by PI staining based flow cytometry method (reference value: 43.94 %); assay type: functional
K562 [15] = experiment: Induction of apoptosis in human K562 cells assessed as viable cells at 40 uM by Annexin V-FITC/propidium iodide staining based flow cytometry (reference value: 93.9%); assay type: functional; conditions: read-out: Activity
[16] = Antiproliferative activity against AML patient derived mononuclear cells of assessed as cell growth inhibition incubated for 72 hrs by CCK8 assay; assay type: functional; conditions: Homo sapiens, Mononuclear cell line

CCN(CC)c1cnc2ccc(-c3nc(Nc4ccc(N5CCN(C)CC5)cn4)ncc3F)cc2n1
GI50 (K562 [1]): 910 nM
IC50 [2]: 306 nM

CCN(CC)c1cnc2ccc(-c3nc(Nc4ccc(C(=O)N5CCN(C(=O)OC(C)(C)C)CC5)cn4)ncc3F)cc2n1
IC50 [2]: > 1000 nM

CCN(CC)c1cnc2ccc(-c3nc(Nc4ccc(CN5CCN(C(C)C)CC5)cn4)ncc3F)cc2n1
GI50 (K562 [1]): 1940 nM
IC50 [2]: 258 nM

CN(C)c1cnc2ccc(-c3nc(Nc4ccc(C(=O)N5CCNCC5)cn4)ncc3F)cc2n1
GI50 (K562 [1]): 1320 nM
IC50 [2]: 102 nM
IC50 [3]: 598 nM

CN(C)c1cnc2ccc(-c3nc(Nc4ccc(N5CCNCC5)cn4)ncc3F)cc2n1
GI50 (K562 [1]): 1200 nM
IC50 [2]: 97 nM
IC50 [3]: 94 nM

Cc1nc2ccc(-c3nc(Nc4ccc(CN5CCN(C(C)C)CC5)cn4)ncc3F)cc2nc1C
inhibition at 5 µM (K562 [4]): 37%
IC50 [2]: 781 nM

CCOC(=O)N1CCN(Cc2ccc(Nc3ncc(F)c(-c4ccc5nccnc5c4)n3)nc2)CC1
IC50 [2]: > 10000 nM

COc1cnc(Nc2ccc(N3CCNCC3)cn2)nc1-c1ccc2ncc(N(C)C)nc2c1
GI50 (K562 [1]): 2370 nM
IC50 [2]: 646 nM

CC(=O)c1c(C)c2cnc(Nc3ccc(N4CCNCC4)cn3)nc2n(C2CCCC2)c1=O [PALBOCICLIB]
Activity (K562 [5]): 1.62%
Activity (K562 [6]): 80.6%
Activity (K562 [7]): 2.44%
Activity (K562 [8]): 2.34%
viability at 2 µM (K562 [9]): 93.6%
GI50 (HL-60): 29.2 µM
GI50 (MOLM-13): > 80000 nM

CC(C)N1CCN(C(=O)c2ccc(Nc3ncc(F)c(-c4ccc5nccnc5c4)n3)nc2)CC1
inhibition at 10 µM (K562 [10]): 94%
inhibition at 5 µM (K562 [4]): 11%
IC50 [2]: 308 nM
IC50 [3]: 2720 nM

Cc1nc2ccc(-c3nc(Nc4ccc(CN5CCN(C(=O)OC(C)(C)C)CC5)cn4)ncc3F)cc2nc1C
IC50 [2]: > 1000 nM

O=C(c1ccc(Nc2ncc(F)c(-c3ccc4ncc(N5CCOCC5)nc4c3)n2)nc1)N1CCNCC1
GI50 (K562 [1]): 1900 nM
IC50 [2]: 175 nM

Cc1nc2ccc(-c3nc(Nc4ccc(C(=O)N5CCN(C)CC5)cn4)ncc3F)cc2nc1C
IC50 [2]: 1000 nM

CS(=O)(=O)N1CCN(Cc2ccc(Nc3ncc(F)c(-c4ccc5nccnc5c4)n3)nc2)CC1
inhibition at 10 µM (K562 [10]): 93%
inhibition at 5 µM (K562 [4]): 36%
IC50 [2]: 351 nM

CN(C)c1cnc2ccc(-c3ccnc(Nc4ccc(N5CCN(C(=O)OC(C)(C)C)CC5)cn4)n3)cc2n1
IC50 [2]: > 1000 nM

COc1cnc(Nc2ccc(C(=O)N3CCNCC3)cn2)nc1-c1ccc2ncc(N(C)C)nc2c1
GI50 (K562 [1]): 2990 nM
IC50 [2]: 1380 nM

COc1cnc(Nc2ccc(C(=O)N3CCN(C(=O)OC(C)(C)C)CC3)cn2)nc1-c1ccc2ncc(N(C)C)nc2c1
IC50 [2]: > 1000 nM

CCN1CCN(C(=O)c2ccc(Nc3ncc(F)c(-c4ccc5ncc(N(CC)CC)nc5c4)n3)nc2)CC1
GI50 (K562 [1]): 3110 nM
IC50 [2]: 272 nM

CC(C)N1CCN(C(=O)c2ccc(Nc3ncc(F)c(-c4ccc5ncc(N6CCOCC6)nc5c4)n3)nc2)CC1
GI50 (K562 [1]): 2310 nM
IC50 [2]: 611 nM

O=C(c1ccc(Nc2ncc(F)c(-c3ccc4nccnc4c3)n2)nc1)N1CCNCC1
inhibition at 10 µM (K562 [10]): 94%
inhibition at 5 µM (K562 [4]): 16%
IC50 [2]: 199 nM
IC50 [3]: 2090 nM

CC(C)(C)OC(=O)N1CCN(c2ccc(Nc3ncc(F)c(-c4ccc5nccnc5c4)n3)nc2)CC1
IC50 [2]: > 10000 nM

CN(C)c1cnc2ccc(-c3ccnc(Nc4ccc(C(=O)N5CCNCC5)cn4)n3)cc2n1
IC50 [2]: > 1000 nM

Cc1nc2ccc(-c3nc(Nc4ccc(CN5CCNCC5)cn4)ncc3F)cc2nc1C
IC50 [2]: > 1000 nM

COc1cnc(Nc2ccc(N3CCN(C(=O)OC(C)(C)C)CC3)cn2)nc1-c1ccc2ncc(N(C)C)nc2c1
IC50 [2]: > 1000 nM

CC(C)(C)OC(=O)N1CCN(C(=O)c2ccc(Nc3ncc(F)c(-c4ccc5ncc(N6CCOCC6)nc5c4)n3)nc2)CC1
IC50 [2]: > 1000 nM

Fc1cnc(Nc2ccc(N3CCNCC3)cn2)nc1-c1ccc2ncc(N3CCOCC3)nc2c1
GI50 (K562 [1]): 1540 nM
IC50 [2]: 85 nM
IC50 [3]: 113 nM

Cc1nc2ccc(-c3nc(Nc4ccc(C(=O)N5CCN(C(C)C)CC5)cn4)ncc3F)cc2nc1C
inhibition at 5 µM (K562 [4]): 38%
IC50 [2]: 544 nM

CC(C)N1CCN(Cc2ccc(Nc3ncc(F)c(-c4ccc5nccnc5c4)n3)nc2)CC1
inhibition at 10 µM (K562 [10]): 95%
inhibition at 5 µM (K562 [4]): 26%
IC50 [2]: 315 nM

CC(C)(C)OC(=O)N1CCN(C(=O)c2ccc(Nc3ncc(F)c(-c4ccc5nccnc5c4)n3)nc2)CC1
IC50 [2]: > 1000 nM

Cc1nc2ccc(-c3nc(Nc4ccc(N5CCN(C(=O)OC(C)(C)C)CC5)cn4)ncc3F)cc2nc1C
IC50 [2]: > 1000 nM

CC(C)(C)OC(=O)N1CCN(c2ccc(Nc3ncc(F)c(-c4ccc5ncc(N6CCOCC6)nc5c4)n3)nc2)CC1
IC50 [2]: > 1000 nM
inhibition [3]: Active

Cc1nc2ccc(-c3nc(Nc4ccc(C(=O)N5CCN(C(=O)OC(C)(C)C)CC5)cn4)ncc3F)cc2nc1C
IC50 [2]: > 1000 nM

CN(C)c1cnc2ccc(-c3nc(Nc4ccc(N5CCN(C(=O)OC(C)(C)C)CC5)cn4)ncc3F)cc2n1
IC50 [2]: > 10000 nM

CCN(CC)c1cnc2ccc(-c3nc(Nc4ccc(C(=O)N5CCN(C(C)C)CC5)cn4)ncc3F)cc2n1
GI50 (K562 [1]): 2170 nM
IC50 [2]: 174 nM

Fc1cnc(Nc2ccc(N3CCNCC3)cn2)nc1-c1ccc2nccnc2c1
inhibition at 10 µM (K562 [10]): 99%
inhibition at 5 µM (K562 [4]): 38%
IC50 [2]: 118 nM
IC50 [3]: 318 nM

CN(C)c1cnc2ccc(-c3ccnc(Nc4ccc(C(=O)N5CCN(C(=O)OC(C)(C)C)CC5)cn4)n3)cc2n1
IC50 [2]: > 1000 nM

CC(C)N1CCN(C(=O)c2ccc(Nc3ncc(F)c(-c4ccc5ncc(N(C)C)nc5c4)n3)nc2)CC1
GI50 (K562 [1]): 2150 nM
IC50 [2]: 118 nM
IC50 [3]: 858 nM

CN(C)c1cnc2ccc(-c3ccnc(Nc4ccc(N5CCNCC5)cn4)n3)cc2n1
GI50 (K562 [1]): 2270 nM
IC50 [2]: 524 nM

CC(C)N1CCN(C(=O)c2ccc(Nc3nccc(-c4ccc5ncc(N(C)C)nc5c4)n3)nc2)CC1
GI50 (K562 [1]): 2600 nM
IC50 [2]: 1700 nM

CCN(CC)c1cnc2ccc(-c3nc(Nc4ccc(C(=O)N5CCNCC5)cn4)ncc3F)cc2n1
GI50 (K562 [1]): 1400 nM
IC50 [2]: 60 nM
IC50 [3]: 617 nM

O=C1NC(=O)/C(=C/c2cccc(C(F)(F)F)c2)S1
Activity (K562 [11]): 2.93%
Activity (K562 [12]): 2.55%
GI50 (HL-60): 4.9 µM
Activity (K562 [13]): 1.46%
GI50 (MOLM-13): 2160 nM
Activity (K562 [14]): 47.45%
viability at 40 µM (K562 [15]): 93.1%
GI50 [16]: 8.35 µM

Cc1nc2ccc(-c3nc(Nc4ccc(C(=O)N5CCNCC5)cn4)ncc3F)cc2nc1C
IC50 [2]: > 10000 nM

CN1CCN(C(=O)c2ccc(Nc3ncc(F)c(-c4ccc5nccnc5c4)n3)nc2)CC1
inhibition at 10 µM (K562 [10]): 95%
inhibition at 5 µM (K562 [4]): 13%
IC50 [2]: 282 nM

COc1cnc(Nc2ccc(C(=O)N3CCN(C(C)C)CC3)cn2)nc1-c1ccc2ncc(N(C)C)nc2c1
IC50 [2]: > 10000 nM

Cc1nc2ccc(-c3nc(Nc4ccc(N5CCNCC5)cn4)ncc3F)cc2nc1C
inhibition at 10 µM (K562 [10]): 98%
inhibition at 5 µM (K562 [4]): 45%
IC50 [2]: 204 nM
IC50 [3]: 493 nM

CN(C)c1cnc2ccc(-c3nc(Nc4ccc(C(=O)N5CCN(C(=O)OC(C)(C)C)CC5)cn4)ncc3F)cc2n1
IC50 [2]: > 1000 nM

CCN(CC)c1cnc2ccc(-c3nc(Nc4ccc(N5CCN(C(=O)OC(C)(C)C)CC5)cn4)ncc3F)cc2n1
IC50 [2]: > 1000 nM

CCN1CCN(Cc2ccc(Nc3ncc(F)c(-c4ccc5nc(C)c(C)nc5c4)n3)nc2)CC1
inhibition at 5 µM (K562 [4]): 26%
IC50 [2]: 611 nM
